Data on one compound can be found in publication PMC6678728, “Methylene Blue Blocks and Reverses the Inhibitory Effect of Tau on PMCA Function” (International Journal of Molecular Sciences, 2019).

This experiment deals with T1, purified pig brain PMCA (brainPMCA).
T1 construct: gene ATP2B1; native, purified from pig brain synaptosomal plasma membrane vesicles, delipidated, reconstituted in PS or PC
Put plainly: quenching of intrinsic Trp fluorescence, Stern-Volmer. Type of experiment: binding, Sus scrofa. The settings on record: reconstituted in PS, no tau; pH 7.4, 25 °C, 100 mM KCl, 2 mM MgCl2, 3.16 µM free Ca2+, 1 mM ATP; unreliable (extrapolated: titrated only up to 10 µM MB). An excerpt: quenching of intrinsic Trp fluorescence, Stern-Volmer on purified pig brain PMCA (brainPMCA)

Broadly, the Kd is the constant that tells how readily two partners part at equilibrium. `CN(C)c1ccc2nc3ccc(=[N+](C)C)cc-3sc2c1` [Methylene blue]: the “Kd” value is 52.6 ± 2.5 µM.
